Data set [1] can be described thus: kettle test of corrosion inhibition, atmospheric CO2, NACE brine/ISOPAR-M. Conditions: 2.5 or 5 ppm added; 150° F. (66° C.), atmospheric CO2, 90% NACE brine and 10% ISOPAR-M; immediately after injection; blank 140 to 190 mpy. The procedure:
FIG. 1 is a graph of the corrosion rate of mild steel at 150° F. (66° C.) in kettle tests at atmospheric CO2 with two different concentrations of 2,5-dimercapto-1,3,4-thiadiazole in a brine fluid.
A formulation of 10% 2,5-dimercapto-1,3,4 thiadiazole (DMTDA) in water with KOH added to adjust the pH to 8.1 was made. The corrosion inhibition of this formulation was tested in a kettle test at 150° F. (66° C.), atmospheric CO2 in a 90% NACE (National Association of Corrosion Engineers) brine and 10% ISOPAR™-M mixture.
The blank corrosion rates range from 140 to 190 mpy (mils per year). Immediately with the injection of the corrosion inhibitor, the corrosion rate lowered to below 40 mpy in the test with the addition of 2.5 or 5 ppm of 2,5-dimercapto-1,3,4-thiadiazole.

For data set [2] the following is noted: cited from earlier work.

Consider `Sc1nnc(S)s1` [2,5-dimercapto-1,3,4-thiadiazole], for which the corrosion rate entry in data set [1] is reported as “below 40 mpy”. In addition, the solubility in water in data set [2] is listed as 0.01 wt %.

The record behind these values is patent US20150267113A1, “Dimercaptothiadiazoles to Prevent Corrosion of Mild Steel by Acid Gases in Oil and Gas Products” (BAKER HUGHES INCORPORATED, priority 2014, published 2015).
